Measured values reported in patent US10010559B2, “Use of derivatives containing C-O-P bonds in patients with kidney failure” (LABORATORIOS SANIFIT, S.L., priority 2013, dated 2018).
Blank lines part the entries; values can stand above or below the molecule they belong to.

Experiments:
[1] = test system: vit D-induced cardiovascular calcification; test: Inhibition of vit D-induced (300,000 IU/kg x3) cardiovascular calcification by s.c. IP6; assay type: in vivo, SD rats
Experimental: Objective: to evaluate the efficacy of s.c. IP6 for inhibiting vit D-induced cardiovascular calcification in rats. Experimental: male SD rats were divided into 9 groups. Two of said groups (sham and control groups) received s.c. saline 2 ml/kg; 6 groups received s.c. […] One group was treated with a s.c. Alzet pump loaded with 200 mg/ml IP6. Calcification was induced by oral administration of 300,000 IU/kg vitamin D (2 ml/kg) for 3 days starting on treatment day 3. […] The calcium content in heart, aorta and kidneys was determined after treatment for 7 days.

[2] = PK profile of IP6 s.c. in rats with normal and diminished kidney function; assay type: in vivo, Wistar rats
Experimental: Objective: to evaluate the PK profile for rats with normal kidney function and renal impairment. Experimental: a single s.c. dose (10 mg/kg) was administered to rats with normal kidney function. Plasma samples were obtained at different timepoints up to 60 minutes. A different group of Wistar rats received oral treatment with adenine 600 mg/kg (p.o.) for 10 days to induce renal impairment. Alpha-calcidol (300 ng/kg) was administered on days 11 and 13 and plasma samples were collected at different timepoints up to 60 minutes on day 14. The plasma IP6 concentrations were quantified for both groups.

[3] = Administration of IP6 via the dialysis system (closed circuit, human blood); assay type: in vitro ADME
Experimental: Objective: to establish the dialysability of IP6 in human blood using a real dialysis system and the effect thereof on calcium chelation.
Experimental: 1 liter of human blood obtained from patients undergoing therapeutic phlebotomy was introduced into a recipient forming a closed dialysis circuit to simulate a real dialysis. Two experiments were performed (administration pre- and post-dialyser, both in bypass and dialysis mode), administering IP6 to human blood for 20 minutes when outside the recipient (which simulated the animal or human body) and circulating via the dialysis circuit. The recipient containing 1 liter of whole blood at a controlled temperature of 37° C. is connected to the dialysis apparatus to form a closed circuit. The dialysis apparatus will be connected for 1 hour (dialysis fluid flow of 500 ml/min and blood flow of 350 ml/min). Blood samples are collected at different times to determine the IP6 and ionic calcium levels.

[4] = PK profile of IP6 by 4 h intravenous infusion in normal and uraemic rats; assay type: in vivo, Wistar rats
Experimental: Objective: to evaluate the PK profile for IP6 in rats with normal kidney function and non-dialysed rats with renal impairment by intravenous infusion.
Experimental: Wistar rats with normal kidney function were treated daily with a dose of 10 or 50 mg/kg IP6 by intravenous fusion over 4 h. Plasma samples were obtained at different timepoints up to 4 hours on day 0. The animals were then treated orally with 600 mg/kg (p.o.) adenine for 10 days to induce renal impairment. The animals were treated with alpha-calcidol (300 ng/kg) on days 11 and 13 and plasma samples were collected at different timepoints up to 4 hours on day 14. The plasma IP6 levels were quantified for both groups.

[5] = In vitro binding kinetics of IP6 to HAP; conditions: 130 mg HAP
Experimental: Objective: to analyse the binding rate of IP6 to HAP.
Experimental: 130 mg HAP was incubated (in triplicate) with 7.6 μM IP6, at 37° C., pH 7.4, for different time intervals while stirring continuously.

[6] = test system: tissue calcification in uraemic animals; test: Adenine model, non-bolus intravascular infusion of IP6; assay type: in vivo, Wistar rats
Experimental: Objective: to determine the efficacy of IP6 as a non-bolus type administration in the prevention of tissue calcification in uraemic animals.
Experimental: CKD was induced in 2 groups (n=12) of male Wistar rats by oral (p.o.) treatment with adenine (600 mg/kg/day) daily for 10 days. After treatment with adenine, the rats received alpha-calcidol at a dose of 300 ng/kg (3×/week, p.o.) until day 28. From day 0 until sacrifice (day 28), the animals were treated with an intravascular infusion of 50 mg/kg IP6 or saline for 4 hours. After 28 days the aorta and heart were collected and the tissue calcium content determined.

[7] = test system: vitamin D-induced cardiovascular calcification; test: Inhibition of vit D-induced (75,000 IU/kg x5) cardiovascular calcification by intravenous IP6; assay type: in vivo, Sprague Dawley (SD) rats
Experimental: Objective: to evaluate the efficacy of intravenous IP6 in inhibiting vitamin D-induced cardiovascular calcification in rats. Experimental: male Sprague Dawley (SD) rats were divided into 7 groups and IP6 was administered intravenously daily for 14 days at a dose of 0, 0.05, 0.1, 0.5, 1, 5 and 10 mg/kg. Calcification was induced by oral administration of 75,000 IU/kg vitamin D on treatment days 3 to 7. Samples were collected. On day 14 the aortas and hears of the animals were collected to quantify calcification.

[8] = Calcium chelation by IP6 in vitro; assay type: physicochemical; conditions: 2.5 mM calcium in 0.15 M NaCl, pH 7.40
Experimental: Objective: to evaluate the ionic calcium chelation potential of IP6. Experimental: a 2.5 mM of calcium in NaCl 0.15 M, pH 7.40, was pipetted with increasing concentrations of IP6. The amount of free ionic calcium was measured potentiometrically using a calcium-selective electrode and a potentiometer.

[9] = test system: ECG and serum ionic calcium; test: Cardiovascular function after 2 h intravascular infusion of IP6 in conscious dogs (telemetry); assay type: in vivo; conditions: for peak IP6 level: dogs
Experimental: Objective: to determine the effects of a non-bolus type administration of IP6 on the electrocardiogram (ECG) and serum ionic calcium concentrations.
Experimental: 4 male dogs were treated with 3, 10 and 30 mg/kg IP6 by infusion for 2 h in a Latin square design. A washout period of one week was performed between doses. ECGs were measured telemetrically at 1 h and 20 minutes prior to infusion and 5, 15, 30, 45 minutes, 1, 2, 6 and 24 h post-infusion. In a second stage, blood samples were taken for PK, for the same doses, at 20 minutes prior to infusion and 5, 15, 30 minutes and 1, 1.5, 2, 3 and 6 h post-infusion. In this case the washout period between doses was 2 days. […]

[10] = In vitro affinity (adsorption) of IP6 for hydroxyapatite; assay type: binding
Experimental: Objective; the objective of this study is to analyse the affinity of IP6 for the target thereof, thereby obtaining a curve for the affinity of IP6 for HAP.
[…] The total quantity of IP6 bound to the surface of the target (HAP) was quantified.
To characterise the behaviour of IP6 binding, the EC50 and Emax for the adsorption thereof on HAP were calculated. This was performed using a non-linear regression model (Log [agonist] vs. response−slope variable; GraphPad Prism software).

[11] = test system: tissue calcification in chronic renal impairment model (5/6 nephrectomised rats); test: 5/6 nephrectomy model, IP6 i.v. bolus; assay type: in vivo, SD rats; conditions: i.v. bolus 1 or 5 mg/kg, 8 weeks
Experimental: Objective: to determine the efficacy of intravenous IP6 in the prevention of tissue calcification in a chronic renal impairment model (5/6 nephrectomised rats).
Experimental: 48 SD rats were 5/6 nephrectomised by complete right lateral nephrectomy and ⅔ partial nephrectomy of the left kidney. 16 animals per group were treated intravenously (bolus) with 2 ml/kg saline, 1 mg/kg IP6 or 5 mg/kg IP6. The animals received a phosphate-rich diet (1% Ca, 1.2% P) containing 20% lactose. After 8 weeks the aorta, heart and remaining ⅓ kidney were collected and the tissue calcium content determined.

[12] = HAP crystallisation induction period (synergy with other treatments); assay type: physicochemical
Experimental: Objective: to evaluate the potential synergies between the effects of IP6 and the effects of other treatments for renal impairment.
Experimental: hydroxyapatite (HAP) was crystallised by mixing appropriate concentrations of calcium and phosphate at pH 7.4. The effect of cinacalcet and sevelamer was simulated by suitably modifying the calcium and phosphate concentrations. The induction period (time required for HAP to begin to crystallise) was recorded as the analytical signal.

[13] = test system: tissue calcification in chronic renal impairment model (adenine); test: Adenine model, bolus-type s.c. IP6; assay type: in vivo, Wistar rats; conditions: s.c. bolus 3, 10 and 30 mg/kg, 28 days, adenine rats
Experimental: Objective: to determine the efficacy of IP6 in the prevention of tissue calcification in an animal model of chronic renal impairment (adenine).
Experimental: CKD was induced in 4 groups (n=12) of male Wistar rats by oral (p.o.) treatment with adenine (600 mg/kg/day) daily for 10 days. After treatment with adenine, the rats received alpha-calcidol at a dose of 300 ng/kg (3×/week, p.o.) until day 28. From day 0 until sacrifice (day 28), the animals were treated with a 2 ml/kg s.c. bolus of 0, 3, 10 and 30 mg/kg IP6. At each treatment, 3 additional animals were included to evaluate the […] for IP6. After 28 days the aorta, heart and right kidney were collected and the tissue calcium content determined.

[14] = test system: serum ionic calcium, ECG and clinical signs; test: Cardiovascular function after bolus intravenous IP6 in conscious dogs (telemetry); assay type: in vivo
Experimental: Objective: to examine the effects of a bolus-type administration of IP6 in serum ionic calcium, ECG and clinical signs in dogs. Experimental: 4 male dogs, 2 per dose, were injected with 10, 15 and 30 mg/kg. Two washout days were introduced between the different doses. The ECGs were recorded telemetrically. Blood ionic calcium concentrations were determined on different days to the ECG measurements.

[15] = normal Wistar rats, s.c. 10 mg/kg
[16] = intravascular infusion 50 mg/kg for 4 hours, day 0-28, uraemic rats
[17] = i.v. between 1 and 10 mg/kg daily for 14 days
[18] = without IP6, drug effect simulated by modifying calcium and phosphate concentrations

Molecule: O=P([O-])([O-])OP(=O)([O-])[O-].[Na+].[Na+].[Na+].[Na+] [pyrophosphate, sodium pyrophosphate, reference compound]
efficacy on calcification ([1]; s.c., at higher doses than IP6): good efficacy

duration of measurable plasma levels [2, 15]: at least 30 minutes
peak plasma concentration [2, 15]: 7.4 µM
time of peak concentration post-administration [2, 15]: 15 min
peak plasma concentration ([2]; uraemic rats (adenine), s.c. 10 mg/kg): 1.8 µM
dialysability of IP6 ([3]; administration via dialysis line for 20 minutes): not lost via the dialysis membrane
effect on free calcium ([3]; apparatus in bypass mode): chelates (sequesters) free calcium
effect on ionic calcium ([3]; apparatus in dialysis mode): ionic calcium levels are restored
peak plasma concentration ([4]; normal rats, 10 mg/kg i.v. infusion over 4 h): 8.4 µM
peak plasma concentration ([4]; normal rats, 50 mg/kg i.v. infusion over 4 h): 68.4 µM
peak plasma concentration ([4]; uraemic rats, 10 mg/kg i.v. infusion over 4 h): 2.8 µM
peak plasma concentration ([4]; uraemic rats, 50 mg/kg i.v. infusion over 4 h): 24.6 µM
time approximately constant plasma concentration maintained ([4]; uraemic rats, 50 mg/kg infusion, from hour 1 to hour 4): 3 h
time to adsorption maximum ([5]; 7.6 μM IP6, 37° C., pH 7.4): 60 min
fraction of maximum binding achieved ([5]; after 5 minutes, 7.6 μM IP6): Around 80%
reduction of plasma IP6 levels by the end of the experiment ([6]; uraemic rats, due to high metabolic rate): 90%
Molecule: O=P(O)(O)O[C@H]1[C@H](OP(=O)(O)O)[C@@H](OP(=O)(O)O)[C@H](OP(=O)(O)O)[C@@H](OP(=O)(O)O)[C@H]1OP(=O)(O)O [IP6, inositol hexaphosphate]
metabolites detected ([2]; plasma, rats): Lower inositol phosphates (IP5, IP4, IP3, IP2, IP1) and inositol
reduction in average calcification in the aorta [6, 16]: 80%
reduction in average calcification in the heart [6, 16]: 85%
effect on mineral content of the aorta and heart ([7]; i.v. 0.05 to 0.5 mg/kg daily for 14 days): did not affect
reduction of calcification in aorta [7, 17]: up to 60%
reduction of calcification in heart [7, 17]: ≤ 68%
IP6 concentration at saturation of calcium chelation [8]: 3788 µM
IP6 concentration with significant ionic calcium chelation [8]: about 379 μM
peak IP6 level ([9]; 3 mg/kg infusion 2 h): 27 µM
peak IP6 level ([9]; 10 mg/kg infusion 2 h): 150 µM
peak IP6 level ([9]; 30 mg/kg infusion 2 h): 482 µM
state of health, weight, cardiorespiratory function, ECG, body temperature, total and free potassium in blood ([9]; infusion for 2 h, 3, 10 and 30 mg/kg, any dose): relatively unaffected
overall effects on dogs ([9]; infusion of 3, 10 and 30 mg/kg for 2 h): no negative effects
Emax for adsorption on HAP (saturation) [10]: 6.42 mg/g
maximum adsorption of IP6 on the HAP surface ([10]; 300 mg HAP, 7.6 μM IP6, 8 hours): 4.8 mg
IP6 concentration at saturation of adsorption on HAP ([10]; 37° C., pH 7.4): ≥ 7.6 µM
calcification inhibition (aorta, heart, remaining kidney) [11]: no evidence of calcification inhibition
efficacy (inhibition of calcification) ([1]; s.c. 60 mg/kg): approximately 60%
efficacy (inhibition of calcification) ([1]; s.c. 100 mg/kg): approximately 60%
minimum dose that produced a significant effect on calcification ([1]; s.c., aorta): 10 mg/kg
induction period of HAP crystallisation ([12]; 11.4 μM IP6, pH 7.4, control 8 minutes): 28 min
combination effect on induction period ([12]; IP6 0-11.4 μM with simulated cinacalcet or sevelamer): clear synergistic effect
calcification inhibition (aorta, heart, right kidney) [13]: no evidence of calcification inhibition
ECG findings ([14]; i.v. bolus above 15 mg/kg, becoming significant above 30 mg/kg): mild tachycardia and prolonged QTc interval
decrease in ionic calcium ([14]; i.v. bolus, correlated with prolonged QTc): 30%

Molecule: C[C@@H](NCCCc1cccc(C(F)(F)F)c1)c1cccc2ccccc12 [cinacalcet, reference compound]
induction period of HAP crystallisation [12, 18]: 14 min

Molecule: sevelamer [reference compound]
induction period of HAP crystallisation [12, 18]: 15 min
